Measured values reported in patent EP0256909B1, “N,N-bis-(4-fluorophenyl) carbamoyl acetohydroxamic acid and pharmaceutical composition containing it” (priority 1986, dated 1988).
“Also recorded” adds a separate entry of the source.

How the values were obtained:
souris [1] = conditions: in vivo, ip
Description: (§1) Le CRL 41131, en suspension dans une solution de gomme arabique à 5%, a été administré par voie intrapéritonéale sous un volume de 20 ml/kg chez la souris (mâle, NMRI, Evic Ceba) et de 5 ml/kg chez le rat (mâle, CD1, Sprague Dawley, Charles River).
Le test est pratiqué sur des lots de 10 souris, 30 min après l'administration de CRL 41131.

souris [2] = assay: Pretoxicity (3 mice per dose); conditions: intraperitoneal, mouse
Description: as §1

souris [3] = assay: Asphyxic anoxia (gallamine triethiodide); assay type: in vivo; conditions: i.p. 30 min before gallamine triethiodide 32 mg/kg i.p.
Description: Des lots de 10 souris reçoivent le CRL 41131 30 min avant l'administration intrapéritonéale de 32 mg/kg de triiodoéthylate de gallamine.

souris [4] = assay: Interaction with oxotremorine; assay type: in vivo; conditions: mouse, oxotremorine 0,5 mg/kg i.p.
Description: Le CRL 41131 est administré à des lots de 6 souris 30 min avant l'injection intrapéritonéale de 0,5 mg/kg d'oxotrémorine.

[5] = Solubility of the powder in solvents; assay type: physicochemical
rat [6] = assay: Interaction with apomorphine, rat; assay type: in vivo; conditions: 64 and above all 256 mg/kg i.p., 30 min before s.c. apomorphine 0,5 mg/kg
Description: as §1
Le CRL 41131 est administré à des lots de 6 rats 30 min avant l'injection sous-cutanée de 0,5 mg/kg d'apomorphine.

souris [7] = assay: Interaction with barbital; assay type: in vivo; conditions: 128 et 512 mg/kg, barbital 220 mg/kg i.p.
Description: Trente minutes après l'administration de CRL 41131, des lots de 10 souris reçoivent une injection intrapéritonéale de barbital (220 mg/kg).

souris [8] = assay: Spontaneous motility (actimeter); assay type: in vivo
Description: Après avoir reçu le CRL 41131, les souris (6 par dose, 12 témoins) sont placées en actimètre où leur motilité est enregistrée pendant 30 min.

homme = assay: Use as stimulant antidepressant in man; assay type: in vivo; conditions: 2 to 3 tablets of 150 mg per day, oral route
souris [9] = assay: Electroshock test; assay type: in vivo
souris [10] = assay: in vivo; conditions: 24 h after administration
Description: as §1
(§2) Aussitôt après l'administration de CRL 41131, les souris groupées par lots de 10 sont placées dans des boîtes en Plexiglass (20 x 10 x 10 cm).
(§3) On note le nombre d'animaux morts, toutes les heures pendant 4 h et après 24, 48 et 72 h.
(§4) La toxicité du CRL 41131 est déterminée dans les mêmes conditions sur des lots de souris placées à raison d'une par boîte.

in vivo = conditions: mouse, in vivo, ip; for LD50 at 48 h: 48 h after administration; for LD50 at 72 h: 72 h after administration; for LD50 at 24 h: dose létale 50% (DL50), 24 h after administration; for selectivity ratio: rapport, LD50 ratio isolated/grouped mice (formula not readable)
Description: as §1, §2, §3, §4

souris [11] = assay: Motility reduced by habituation to the enclosure; assay type: in vivo; conditions: 32, 128 et 512 mg/kg i.p.
Description: Après 18 h de séjour dans les actimètres, les souris (6 par dose, 12 témoins) reçoivent le CRL 41131. Elles sont aussitôt replacées dans leurs enceintes respectives et, 30 min plus tard, on enregistre leur motilité pendant 30 min.

souris [12] = assay: Interaction with reserpine; assay type: in vivo; conditions: 128 et 512 mg/kg i.p., mouse, 4 h after reserpine 2,5 mg/kg i.p.
Description: Quatre heures après l'injection intrapéritonéale de 2,5 mg/kg de réserpine, des lots de 6 souris reçoivent le CRL 41131.

souris [13] = assay: Motility reduced by hypoxic aggression; assay type: in vivo; conditions: 8, 32, above all 128 et 512 mg/kg i.p., after acute hypobaric anoxia
Description: Trente minutes après avoir reçu le CRL 41131, les souris (10 par dose, 20 témoins) sont soumises à une anoxie hypobare aiguë (dépression de 600 mmHg en 90 s, détente de 45 s), puis elles sont placées en actimètre où leur motilité est enregistrée pendant 10 min.

rat [14] = assay: Global behaviour and reactivities, rat; assay type: in vivo
Description: (§5) Des lots de 3 animaux sont observés avant, puis 15 min, 30 min, 1 h, 2 h, 3 h et 24 h après l'administration de CRL 41131.

rat [15] = assay: Interaction with amphetamine; assay type: in vivo
souris [16] = assay: Global behaviour and reactivities, mouse; assay type: in vivo
Description: as §5

rat [17] = assay: Search for stereotyped movements; assay type: in vivo; conditions: for mouvements stéréotypés (cotes): 22 h 30 min after administration, scored 0 to 3
Description: as §1

[18] = comparison section, no dose given

## O=C(CC(=O)N(c1ccc(F)cc1)c1ccc(F)cc1)NO [CRL 41131, acide N,N-bis-(4-fluorophényl) carbamoylacétohydroxamique]
Souris [1]
  incapacité motrice: ne provoque pas l'incapacité motrice majeure
Souris [2]; 512 mg/kg
  Prétoxicité: signes observés: sédation, crampes abdominales, diminution de la fréquence respiratoire pendant 30 min, puis excitation. A 24 h : excitation et stéréotypies
Souris [2]; 1024 mg/kg
  Prétoxicité: signes observés: sédation, crampes abdominales, diminution de la fréquence respiratoire pendant 30 min, puis excitation. A 24 h : excitation, stéréotypies et convulsions
Souris [2]; 128 et 256 mg/kg
  Prétoxicité: signes observés: à partir de 30 min : excitation; à 24 h, l'excitation est encore présente, et présence de stéréotypies
Souris [2]; 128 to 1024 mg/kg
  mortalité: Aucune mortalité
Souris [3]
  délai d'apparition des convulsions consécutives à une anoxie asphyxique: ne modifie pratiquement pas
Souris [4]
  action hypothermisante de l'oxotrémorine (température): n'a pas d'effet; also recorded: ne modifie pas
  intensité des tremblements provoqués par l'oxotrémorine: n'a pas d'effet; also recorded: ne modifie pas
  signes de stimulation cholinergique périphérique dus à l'oxotrémorine: ne modifie pas
[5]; alcohols, acetone, ethyl acetate
  solubilité dans les alcools, l'acétone, l'acétate d'éthyle: soluble
[5]; ether
  solubilité dans l'éther: peu soluble
[5]; isopropyl ether
  solubilité dans l'éther isopropylique: insoluble
[5]; water
  solubilité dans l'eau: insoluble
Rat [6]
  stéréotypies induites par l'apomorphine: potentialisation
Souris [7]
  durée du sommeil barbiturique: diminue encore le sommeil; also recorded: diminue la durée du sommeil barbiturique
Souris [8]; 32 mg/kg i.p.
  durée de l'effet: 4 h
Souris [8]; 128 mg/kg i.p.
  durée de l'effet: 4 à 24 h
Souris [8]; 512 mg/kg i.p.
  durée de l'effet: > 24 h
Souris [8]; 512 mg/kg i.p. (highest dose), given 30 min before actimeter
  hypermotilité: l'hypermotilité est moins importante qu'à 128 mg/kg
Souris [8]; 8, 32, 128 et 512 mg/kg i.p., given 30 min before actimeter
  activité motrice spontanée: augmente modérément l'activité motrice spontanée
Souris [8]; 128 et 512 mg/kg i.p., given 2 h before actimeter
  activité motrice spontanée: cette augmentation est plus nette
Souris [8]; 128 et 512 mg/kg i.p., given 4 h before actimeter
  motilité spontanée: augmente la motilité spontanée
Souris [8]; from 8 mg/kg i.p., given 2 h before actimeter
  activité motrice spontanée: augmente l'activité motrice spontanée
Souris [8]; ip, mouse, i.p., overall conclusion, read-out: doses qui augmentent l'activité motrice spontanée
  minimal effective dose: ≥ 32 mg/kg
Souris [8]; only 512 mg/kg i.p., given 24 h before actimeter
  motilité spontanée: augmente modérément la motilité spontanée
homme
  résultats comme antidépresseur stimulant chez l'homme: bons résultats comme antidépresseur stimulant
Souris [9]; 32, 128 et 512 mg/kg i.p., mouse, 30 min after administration
  effets létaux de l'électrochoc: aggrave modérément les effets létaux de l'électrochoc
Souris [9]; [18]
  test à l'électrochoc: aggrave les effets létaux de l'électrochoc
Souris [10]
  toxicité chez les souris groupées par rapport aux souris isolées: modérément plus toxique chez les souris groupées
In vivo; DL50, grouped mice
  LD50 at 48 h: ~480 mg/kg
  LD50 at 72 h: ~370 mg/kg
In vivo; DL50, isolated mice
  LD50 at 48 h: ~300 mg/kg
  LD50 at 72 h: ~1100 mg/kg
In vivo; grouped mice
  LD50 at 24 h: ~700 mg/kg
In vivo; isolated mice
  LD50 at 24 h: ~500 mg/kg
In vivo; 48 h
  selectivity ratio: 2.7
In vivo; 72 h
  selectivity ratio: 2.97
Souris [11]
  activité motrice chez la souris habituée à son enceinte: reprise nette de l'activité motrice
Souris [12]
  hypothermie réserpinique: s'oppose tardivement (24 h)
  ptôsis réserpinique: s'oppose tardivement (24 h)
Souris [13]
  récupération motrice: amélioration de la récupération motrice
Rat [14]; 256 mg/kg i.p.
  comportement: excitation, réaction de peur: excitation et augmentation de la réaction de peur (entre 2 h et 24 h)
Rat [14]; 256 mg/kg i.p., 24 h
  stéréotypies, réactivité au toucher: stéréotypies, augmentation de la réactivité au toucher en 24 h
Rat [14]; 4, 16 et 64 mg/kg i.p.
  comportement et réactivités: pas de modification nette du comportement et des réactivités
Rat [15]; 64 and above all 256 mg/kg i.p., rat, 30 min before amphetamine 2 mg/kg i.p.
  stéréotypies amphétaminiques: potentialisation importante
Rat [15]; [18]
  test à l'amphétamine: stéréotypies du rat: potentialise ces stéréotypies
Souris [16]; 128 mg/kg i.p.
  Comportement global: excitation: excitation (1/3) pendant 1 h
Souris [16]; 512 mg/kg i.p.
  Comportement global: excitation: excitation (1/3 pendant 1 h, 2/3 entre 2 et 3 h, et 3/3 à 24 h)
Souris [16]; 512 mg/kg i.p., 24 h
  Comportement global et réactivités à 24 h: mouvements d'apparence stéréotypée, augmentation de la réaction de peur et de la réactivité au toucher à 24 h
Souris [16]; 8 et 32 mg/kg i.p.
  Comportement, réactivités, variations du diamètre pupillaire et de la température: comparables à ceux du lot témoin
Rat [17]; 64 mg/kg i.p.
  mouvements stéréotypés (cotes): 1
Rat [17]; 128 mg/kg i.p.
  mouvements stéréotypés (cotes): 2
Rat [17]; 256 mg/kg i.p.
  mouvements stéréotypés (cotes): 3
Rat [17]; 128 et 256 mg/kg i.p.
  mouvements stéréotypés persistant pendant: > 30 h
Rat [17]; from the lowest dose used, 64 mg/kg i.p.
  mouvements stéréotypés: provoque l'apparition de mouvements stéréotypés
